Patent US6632981B1, “DNA sequences encoding polypeptides having beta-1,3-glucanase activity” (Novartis Finance Corporation, priority 1988, dated 2003)

System: chimeric PR-1a/GUS gene
Assay: GUS induction in transformed tomato callus
Format: cell-based
Details: 250 g/l spray, 21 hours
Experimental: Agrobacterium strains containing the appropriate vectors as described above (e.g. CIB270, CIB271, CIB272, CIB273, pCIB271×15955, pCIB271 X A208, pCIB271 X A281, pCIB271 X A4, pCIB272 X 15955, pCIB272 X A208, pCIB272 X A281, pCIB272 X A4, pCIB273 X 15955, pCIB273 X A208, pCIB273 X A281, and pCIB273 X A4) are grown as described in Example 112. The bacteria, diluted to an OD600 of 0.2-0.4, are then used for inoculation of stems of tomato seedlings prepared as described below.
Tomato seeds are soaked 20 min in 10% chlorox and rinsed with sterile water. […]
After one week the inoculated stems are cut and placed on 0.7% agar containing MS salts, 3% sucrose, […] 6-benzylaminopurine, 100 µg/ml carbenicillin, 100 µg/ml mefoxim, and 50 µg/ml kanamycin. […] The callus is transferred to fresh media every two weeks until sufficient quantity is obtained for 4 plates. […]
The reactions are carried out in the wells of ELISA plates by mixing 5-25 l extract with 120-100 l GUS assay buffer (50 mM sodium phosphate buffer pH 7.0, 0.1% Triton X-100, 10 mM β-mercaptoethanol) containing 4-methyl umbelliferyl glucuronide (MU) at a final concentration of 2 mM in a total volume of 125 l. […] The concentration of fluorescent indicator released is determined by reading the plate on a Flow Labs Fluoroskan II ELISA plate reader.

COC(=O)c1cccc2nnsc12 [Methyl benzo-1,2,3-thiadiazole-7-carboxylate]
GUS activities (tomato callus transformed with CIB271, H2O spray 17.2): 56.1 pKat MU/mg protein
GUS activities (tomato callus transformed with CIB273 X A4, H2O spray 4.6): 22.1 pKat MU/mg protein
